Test results reported in PubChem BioAssay (NCI).
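Following 48 hours of exposure in 96-well plates, responses at five concentrations were used to interpolate endpoints linearly. TGI marks complete inhibition of growth.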

How the values were obtained:
Assay in all cases: inhibition of tumour cell growth, NCI panel, 48 h
[1] = system: CCRF-CEM leukemia
[2] = system: COLO 205 colon
[3] = system: HL-60(TB) leukemia
[4] = system: MCF7 breast
[5] = system: MOLT-4 leukemia
[6] = system: NCI/ADR-RES ovarian
[7] = system: OVCAR-8 ovarian
[8] = system: SK-OV-3 ovarian
[9] = system: TK-10 renal
[10] = system: U251 CNS

| SMILES | TGI [1] [µM] | TGI [2] [µM] | TGI [3] [µM] | TGI [4] [µM] | TGI [5] [µM] | TGI [6] [µM] | TGI [7] [µM] | TGI [8] [µM] | TGI [9] [µM] | TGI [10] [µM] |
| --- | --- | --- | --- | --- | --- | --- | --- | --- | --- | --- |
| CC(C)(Oc1ccc(Cl)cc1)C(=O)N(C(=O)N1CCC(c2ccccc2)CC1)c1ccccc1 | > 100 | > 62.5 | 29 | > 100 | > 28.3 | > 100 | > 100 | > 100 | > 100 | > 100 |
| CC1CC/C(=C\c2ccc(Cl)cc2)C2OC(N)=C(C#N)C(c3ccc(Cl)cc3)=C12 (stereo not given) | 31.2 | 25.2 | 27.4 | 29.8 | 24.2 | 25.9 | 27.4 | 40 | 41.3 | 30.6 |
| O=C(Cn1c(C(=O)/C=C/c2cccs2)nc2ccccc21)c1ccc(Cl)cc1 |  | 38.3 | 61.3 | 48.4 |  | 38.4 |  | > 100 | 89.5 | 30.3 |
| COc1ccc(C(SC2C(O)C(CO)OC2n2ccc(N)nc2=O)(c2ccccc2)c2ccc(OC)cc2)cc1 (stereo not given) | > 100 | 28.7 | 69.4 | 50.6 | > 100 | 60 | > 100 | 56.1 | 66.2 | 33 |
| CCOc1cc(C2CC(c3ccc(NS(=O)(=O)c4cc([N+](=O)[O-])ccc4C)cc3)=NN2c2ccc([N+](=O)[O-])cc2[N+](=O)[O-])ccc1O (stereo not given) | > 100 | 52.4 | > 100 | 42.1 | > 100 | 63.8 | 49 | 10.4 | 33.7 | 29.2 |
| CCOC(=O)c1nc2ccc(C(F)(F)F)cc2nc1Oc1cc(OC)cc(OC)c1 | > 100 | > 100 | > 100 | > 100 | > 100 | > 100 | > 100 | > 100 | > 100 | > 100 |
| CC1(C)CC(=O)c2c(nc3ccc4ccccc4c3c2-c2ccc(NC(=O)CCCCCCCCC(=O)Nc3ccc(-c4c5c(nc6ccc7ccccc7c46)CC(C)(C)CC5=O)cc3)cc2)C1 | > 100 | > 100 | > 100 | > 100 | > 100 | > 100 | > 100 | > 100 | > 100 | > 100 |
| CCOC(=O)c1cc2c3c(c(C(C)=O)c(O)c2[nH]1)N(CC(C)CC)CC3 (stereo not given) | > 100 | > 100 | > 100 | > 100 | > 100 | > 100 | > 100 | > 100 | > 100 | > 100 |
| COc1cc(C2c3cc4c(cc3OC(NNC(N)=O)C2C)OCO4)cc(OC)c1O (stereo not given) | > 100 | 9.4 | 7.84 | > 55 | > 100 | > 76.1 | > 100 | > 51.5 | > 73.8 | > 53.1 |
| c1cn(C23C4C5C6C4C2C6C53)cn1 (stereo not given) | > 100 | > 100 | > 100 | > 100 | > 100 | > 100 | > 100 | > 100 | > 100 | > 100 |
| C[C@H]1C[C@H]2[C@@H]3C(C)(C)O[C@]4(O)C(=O)[C@]5(O)[C@@H](C)CC[C@H]1[C@]25C(=O)[C@]34C | > 100 | 38.6 | 59.2 | > 100 | 80.7 | > 100 | > 100 | > 100 |  | > 100 |
| Nc1ncnc2c1nnn2C1CCC(CP(=O)(O)O)C1 (stereo not given) | > 100 | > 100 | > 100 | > 100 | > 100 | > 100 | > 100 | > 100 | > 100 | > 100 |
| C=C(C)C(O)C(O)c1c(OC)ccc2ccc(=O)oc12 (stereo not given) | > 100 | > 100 | > 100 | > 100 | > 100 | > 100 | > 100 | > 100 | > 100 | > 100 |
| O=c1oc2ccccc2cc1-c1cn2cc(Cl)ccc2n1 | > 100 | > 50.3 | > 61.7 | 2.12 | > 36.1 | 2.73 | 18.6 | 5.96 | 22.3 | 13.9 |
| N#Cc1ccccc1-c1nc2c3c(c(N)ccc3n1)C(=O)c1ccccc1-2 | > 100 | > 100 | > 100 | > 100 | > 100 | > 100 | > 100 | > 100 | > 100 | > 100 |
| O=C1c2cc3c(cc2CC12Cc1ccc4c(c1C2=O)CCCC4)CCCC3 (stereo not given) | > 100 |  | > 100 | > 100 | > 100 | > 100 | > 100 | 87.4 | > 100 | 60.5 |
| C(CCCCc1nnc(N2CCCCC2)o1)CCCc1nnc(N2CCCCC2)o1 | > 100 | > 100 | > 100 | > 100 | > 100 | > 100 | > 100 | > 100 | > 100 | > 100 |
| COc1c(O)cc(O)c2c(=O)cc(-c3ccccc3)oc12 | > 100 | > 100 | 57.3 | > 100 | > 100 | > 100 | > 100 | > 100 | > 100 | > 100 |
| O=C(O)c1ccn(-c2cccc(-n3ccc(C(=O)O)n3)n2)n1 | > 100 | > 100 | > 100 | > 100 | > 100 | > 100 | > 100 | > 100 | > 100 | > 100 |
| Oc1c([Si](c2ccccc2)(c2ccccc2)c2ccccc2)cc2ccccc2c1-c1c(O)c([Si](c2ccccc2)(c2ccccc2)c2ccccc2)cc2ccccc12 | > 100 | > 100 | > 100 | > 100 | > 100 | > 100 | > 100 | > 100 | > 100 | > 100 |
